Test results published in the supplement of paper PMC12406974.

What was measured:
Assay in all cases: maximum observed lethal fraction; higher = more cell death
U2OS PTBP1-KO = test system: U2OS PTBP1-KO
U2OS BAX/BAK1 DKO = test system: U2OS BAX/BAK1 DKO
U2OS BCL2L12-KO = test system: U2OS BCL2L12-KO
U2OS = test system: U2OS
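Further: FLICK assay: SYTOX Green fluorescence of dead cells tracked over time after drugging in 96-well plates, with total cell counts taken from Triton X-100 lysed wells.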

SMILES	maximum observed lethal fraction (U2OS PTBP1-KO; 0.0316 µM)	maximum observed lethal fraction (U2OS PTBP1-KO; 0.1 µM)	maximum observed lethal fraction (U2OS PTBP1-KO; 0.316 µM)	maximum observed lethal fraction (U2OS PTBP1-KO; 1 µM)	maximum observed lethal fraction (U2OS PTBP1-KO; 3.16 µM)	maximum observed lethal fraction (U2OS PTBP1-KO; 10 µM)	maximum observed lethal fraction (U2OS BAX/BAK1 DKO; 0.0316 µM)	maximum observed lethal fraction (U2OS BAX/BAK1 DKO; 0.1 µM)	maximum observed lethal fraction (U2OS BAX/BAK1 DKO; 0.316 µM)	maximum observed lethal fraction (U2OS BAX/BAK1 DKO; 1 µM)	maximum observed lethal fraction (U2OS BAX/BAK1 DKO; 3.16 µM)	maximum observed lethal fraction (U2OS BAX/BAK1 DKO; 10 µM)	maximum observed lethal fraction (U2OS BCL2L12-KO; 0.0316 µM)	maximum observed lethal fraction (U2OS BCL2L12-KO; 0.1 µM)	maximum observed lethal fraction (U2OS BCL2L12-KO; 0.316 µM)	maximum observed lethal fraction (U2OS BCL2L12-KO; 1 µM)	maximum observed lethal fraction (U2OS BCL2L12-KO; 3.16 µM)	maximum observed lethal fraction (U2OS; 0.1 µM)	maximum observed lethal fraction (U2OS; 0.316 µM)	maximum observed lethal fraction (U2OS; 1 µM)	further results
CC(C)C[C@@H](C=O)NC(=O)[C@H](CC(C)C)NC(=O)[C@H](CC(C)C)NC(=O)OCc1ccccc1 [MG132]	0.0706	0.0708	0.182	0.683	0.813	0.923	0.0549	0.0687	0.0897	0.337	0.434	0.384	0.07	0.0753	0.327	0.817	0.914	0.0844	0.698	0.86	maximum observed lethal fraction (U2OS PTBP1-KO; 0.01 µM): 0.0698; maximum observed lethal fraction (U2OS BAX/BAK1 DKO; 0.01 µM): 0.0534; maximum observed lethal fraction (U2OS BCL2L12-KO; 0.01 µM): 0.0715; maximum observed lethal fraction (U2OS BCL2L12-KO; 10 µM): 0.972; maximum observed lethal fraction (U2OS; 0.01 µM): 0.0559; maximum observed lethal fraction (U2OS; 0.0316 µM): 0.0568; maximum observed lethal fraction (U2OS; 3.16 µM): 0.893; maximum observed lethal fraction (U2OS; 10 µM): 0.926
O=C(NOC[C@H](O)CO)c1ccc(F)c(F)c1Nc1ccc(I)cc1F [Mirdametinib]	0.0994	0.11	0.102	0.121	0.187	0.229	0.0734	0.0716	0.0737	0.078	0.0794	0.0785	0.104	0.11	0.123	0.349	0.546	0.077	0.0842	0.244	maximum observed lethal fraction (U2OS PTBP1-KO; 31.6 µM): 0.376; maximum observed lethal fraction (U2OS BAX/BAK1 DKO; 31.6 µM): 0.0843; maximum observed lethal fraction (U2OS BCL2L12-KO; 10 µM): 0.58; maximum observed lethal fraction (U2OS BCL2L12-KO; 31.6 µM): 0.806; maximum observed lethal fraction (U2OS; 0.0316 µM): 0.0749; maximum observed lethal fraction (U2OS; 3.16 µM): 0.353; maximum observed lethal fraction (U2OS; 10 µM): 0.435; maximum observed lethal fraction (U2OS; 31.6 µM): 0.554
NC(=O)c1cccc2cn(-c3ccc([C@@H]4CCCNC4)cc3)nc12 [Niraparib]	–	0.0698	0.0678	0.0749	0.0795	0.0839	–	0.0556	0.0569	0.065	0.0723	0.0787	–	0.0692	0.0678	0.0775	0.0795	0.0543	0.0611	0.0677	maximum observed lethal fraction (U2OS PTBP1-KO; 31.6 µM): 0.396; maximum observed lethal fraction (U2OS PTBP1-KO; 100 µM): 0.964; maximum observed lethal fraction (U2OS BAX/BAK1 DKO; 31.6 µM): 0.342; maximum observed lethal fraction (U2OS BAX/BAK1 DKO; 100 µM): 0.936; maximum observed lethal fraction (U2OS BCL2L12-KO; 10 µM): 0.0934; maximum observed lethal fraction (U2OS BCL2L12-KO; 31.6 µM): 0.86; maximum observed lethal fraction (U2OS BCL2L12-KO; 100 µM): 0.928; maximum observed lethal fraction (U2OS; 3.16 µM): 0.067; maximum observed lethal fraction (U2OS; 10 µM): 0.0744; maximum observed lethal fraction (U2OS; 31.6 µM): 0.716; maximum observed lethal fraction (U2OS; 100 µM): 0.968
CC(=O)c1c(C)c2cnc(Nc3ccc(N4CCNCC4)cn3)nc2n(C2CCCC2)c1=O [Palbociclib]	0.0713	0.0739	0.0802	0.0817	0.0847	0.109	0.0646	0.0686	0.0764	0.0783	0.0842	0.0911	0.0645	0.0667	0.0699	0.0732	0.0829	0.0645	0.0683	0.0747	maximum observed lethal fraction (U2OS PTBP1-KO; 0.01 µM): 0.0641; maximum observed lethal fraction (U2OS BAX/BAK1 DKO; 0.01 µM): 0.0642; maximum observed lethal fraction (U2OS BCL2L12-KO; 0.01 µM): 0.0599; maximum observed lethal fraction (U2OS BCL2L12-KO; 10 µM): 0.221; maximum observed lethal fraction (U2OS; 0.01 µM): 0.0597; maximum observed lethal fraction (U2OS; 0.0316 µM): 0.068; maximum observed lethal fraction (U2OS; 3.16 µM): 0.09; maximum observed lethal fraction (U2OS; 10 µM): 0.173
Cc1[nH]c2ccccc2c1CCNCc1ccc(/C=C/C(=O)NO)cc1 [Panobinostat]	0.527	0.601	0.603	0.65	–	–	0.102	0.108	0.0953	0.0939	–	–	0.775	0.856	0.838	0.895	–	0.761	0.802	0.851	maximum observed lethal fraction (U2OS PTBP1-KO; 0.001 µM): 0.0914; maximum observed lethal fraction (U2OS PTBP1-KO; 0.00316 µM): 0.11; maximum observed lethal fraction (U2OS PTBP1-KO; 0.01 µM): 0.349; maximum observed lethal fraction (U2OS BAX/BAK1 DKO; 0.001 µM): 0.0715; maximum observed lethal fraction (U2OS BAX/BAK1 DKO; 0.00316 µM): 0.0768; maximum observed lethal fraction (U2OS BAX/BAK1 DKO; 0.01 µM): 0.0894; maximum observed lethal fraction (U2OS BCL2L12-KO; 0.001 µM): 0.0774; maximum observed lethal fraction (U2OS BCL2L12-KO; 0.00316 µM): 0.0897; maximum observed lethal fraction (U2OS BCL2L12-KO; 0.01 µM): 0.352; maximum observed lethal fraction (U2OS; 0.001 µM): 0.0735; maximum observed lethal fraction (U2OS; 0.00316 µM): 0.0836; maximum observed lethal fraction (U2OS; 0.01 µM): 0.265; maximum observed lethal fraction (U2OS; 0.0316 µM): 0.655
CO[C@H]1C[C@@H]2CC[C@@H](C)[C@@](O)(O2)C(=O)C(=O)N2CCCC[C@H]2C(=O)O[C@H]([C@H](C)C[C@@H]2CC[C@@H](O)[C@H](OC)C2)CC(=O)[C@H](C)/C=C(\C)[C@@H](O)[C@@H](OC)C(=O)[C@H](C)C[C@H](C)/C=C/C=C/C=C/1C [Rapamycin]	0.0686	0.0757	0.0711	0.0784	0.0724	0.0767	0.0616	0.0646	0.0631	0.0613	0.0695	0.0695	0.0732	0.0721	0.0738	0.0786	0.084	0.0606	0.0645	0.061	maximum observed lethal fraction (U2OS PTBP1-KO; 0.01 µM): 0.0742; maximum observed lethal fraction (U2OS BAX/BAK1 DKO; 0.01 µM): 0.0624; maximum observed lethal fraction (U2OS BCL2L12-KO; 0.01 µM): 0.0761; maximum observed lethal fraction (U2OS BCL2L12-KO; 10 µM): 0.0965; maximum observed lethal fraction (U2OS; 0.01 µM): 0.062; maximum observed lethal fraction (U2OS; 0.0316 µM): 0.0603; maximum observed lethal fraction (U2OS; 3.16 µM): 0.0607; maximum observed lethal fraction (U2OS; 10 µM): 0.0674
CN(C)C(=O)c1cc2cnc(Nc3ccc(N4CCNCC4)cn3)nc2n1C1CCCC1 [Ribociclib]	0.0595	0.064	0.0704	0.0696	0.0751	0.0787	0.057	0.0609	0.0673	0.0658	0.0721	0.082	0.0572	0.0587	0.0607	0.0645	0.07	0.0602	0.0591	0.0629	maximum observed lethal fraction (U2OS PTBP1-KO; 0.01 µM): 0.0584; maximum observed lethal fraction (U2OS BAX/BAK1 DKO; 0.01 µM): 0.0572; maximum observed lethal fraction (U2OS BCL2L12-KO; 0.01 µM): 0.0551; maximum observed lethal fraction (U2OS BCL2L12-KO; 10 µM): 0.0804; maximum observed lethal fraction (U2OS; 0.01 µM): 0.0675; maximum observed lethal fraction (U2OS; 0.0316 µM): 0.0565; maximum observed lethal fraction (U2OS; 3.16 µM): 0.0661; maximum observed lethal fraction (U2OS; 10 µM): 0.077
